Results from patent US7413729B2, “Sialic acid permease system” (priority 2005, dated 2008).

How the values were obtained:
H. influenzae [1] = conditions: Goon et al. PNAS 100, 3089-3094; cited from earlier work
[2] = tested on: influenza A neuraminidase; conditions: literature statement; cited from earlier work
siaT = siaT (Haemophilus influenzae, UniProt P44542); assay: Biacore analysis of Neu5Ac binding to siaT; parameters: species or system H. influenzae; conditions: for binding to siaT: concentrations as high as 200 mM; for binding to siaP (summary statement): restates the Example 3 binding studies
From the text: In one embodiment, one can use the Biacore® screening method for molecules that bind to SiaT. Briefly, one uses a Biacore® instrument to measure bimolecular binding, establish a high throughput system to search for molecules which bind to SiaT or SiaP. SiaT expressing a His tag is bound to a sensor NTA chip in the Biacore® instrument. The Biacore® instrument measures binding events on the sensor chip surface, so that the interactant attached to the surface determines the specificity of the analysis. Testing the specificity of an interaction involves simply asking whether different molecules can bind to the immobilized interactant. Binding gives an immediate change in the SPR signal, so that it is directly apparent whether an interaction takes place or not. As sample is passed over the sensor surface, the progress of binding directly reflects the rate at which the interaction occurs. Injection of sample is followed by buffer flow during which the response reflects the rate of dissociation of the complex on the surface. Kinetic rate constants for the binding and dissociation can be obtained by fitting the results to mathematical descriptions of interaction models. Binding affinities can be obtained either from rate constant measurements (the dissociation constant KD is the ratio of the rate constants kd/ka for a 1:1 interaction) or by measuring the steady state level of binding as a function of sample concentration. The rate of binding of an interactant to a given surface is a function of the interactant concentration, so that measurements with the Biacore® instrument can be used to determine concentration of a specific substance in pure solution or in complex mixtures. The selectivity, dynamic range and other assay performance characteristics are determined largely by the choice of binding molecule attached to the surface. Thus, one can rapidly screen large number of candidate molecules for binding to the SiaT and develop information about rate of binding and dissociation constants. Molecules that have a high binding affinity and dissociate poorly are examined as candidates for study of inhibition of ^3H-sialic acid uptake by nontypeable H. influenzae.
The inventors performed Biacore® analysis of Neu5Ac binding to siaT (FIG. 19). […] Binding peaked at 22 mM and calculations estimated the kD of siaT for Neu5Ac to be 1.7×10^−8.

[3] = tested on: nontypeable Haemophilus influenzae; conditions: sialic acid 10 uM in plates, inhibitor 0.01-10 μM
Experimental: Assay: Sialic acid 10 uM was incorporated into Brain Heart Infusion plates containing NAD and Hemin. The inhibitor was also added at 0.01 μM, 0.1 μM, 1 μM and 10 μM concentrations. Control plates were simultaneously prepared which lacked inhibitor. Results obtained from these plates represented the 100% sialic acid incorporation The inhibition assay was performed by plating 10^7 nontypeable Haemophilus influenzae onto each plate and allowed them to grow overnight in 5% CO2 at 37° C. After 16 hours, organisms were collected from the plate and separately diluted in distilled water to a density of 0.1 absorbance at 600 nm.
Analysis: These organisms were analyzed for sialic acid incorporation onto the surface of the organism. To accomplish this, one hundred microliters was placed in a microtiter well and allowed to dry overnight in a 37° C. dry incubator. The next day the plates were washed in a microtiter washer and 100 microliters of antibody 3F11 in TBS Tween-20 was placed in each well. Monoclonal antibody 3F11 binds the lactosamine epitope to which the sialic acid is attached. If sialic acid is present, 3F11 will not bind. If sialic acid is absent, 3F11 binds. The plates were then allowed to set at 37° C. in a moist chamber for two hours. The plates were washed and 100 microliters of a mouse anti-IgM phosphatase conjugate was added to each well. The plates was allowed to set in a 37° C. incubator for one hour. The plate was washed, and 100 microliters p-nitrophenol-phosphate was added to each well. The plate was allowed to set for 1 hour and the color reaction was read in a microtiter plate reader at an absorbance of 405 nm.

SiaP [4] = molecular target: T1, SiaP (Haemophilus influenzae, UniProt P44542); assay: Biacore surface plasmon resonance, sialic acid binding to SiaP on CM5 sensor chip; parameters: species or system H. influenzae; conditions: for evidence of binding to SiaP: concentrations as high as 100 mM
T1 construct: made in house; host or cells: E. coli (PET15 vector)
Experimental: Biacore® Analysis: Surface plasmon resonance analysis was performed to measure the affinity of binding of sialic acid to SiaP. These studies were performed on a Biacore® instrument using the CM5 sensor chip. SiaP was bound to the chip and increasing concentrations of sialic acid were introduced into the instrument. […] Increasing concentration of sialic acid up to 50 mM show minimal increase in binding. Based on the calculations from this analysis, an association constant of 1.7×10^7 M was calculated.

H. influenzae [5] = assay: Inhibition of sialylation of LOS; format: cell-based; conditions: found by the inventors
His-tagged siaP = His-tagged siaP (Haemophilus influenzae, UniProt P44542); assay: Binding of 3H-Neu5Ac to His-tagged siaP bound to a nickel affinity resin; parameters: species or system H. influenzae; conditions: three experiments; controls His-tagged luxS resin and resin without protein
From the text: The inventors also determined whether ^3H-Neu5Ac would bind to His-tagged siaP bound to a nickel affinity resin. […] Two controls are included, the His-tagged luxS protein bound to a nickel affinity resin and nickel affinity with no protein bound to it.

SiaP [6] = molecular target: T1, SiaP; assay: Isothermal titration calorimetry of SiaP with sialic acid; format: binding, H. influenzae; conditions: ITC
Experimental: Calorimetry and Dynamic Light Scattering. Isothermal titration calorimetry (ITC) experiments were performed in order to determine the binding affinity of SiaP for sialic acid. […] Dynamic light scattering (DLS) experiments were performed to determine the hydrodynamic radius of SiaP with and without sialic acid. […] This was verified by two types of experiments. In the first experiment, excess sialic acid was incubated with SiaP for several hours before DLS experiments were performed. In the second, DLS was performed on protein taken from the calorimeter following an ITC experiment.

SiaP [7] = molecular target: T1, SiaP; assay: Binding of 3H-labelled sialic acid to SiaP-Sepharose conjugate; parameters: species or system H. influenzae; conditions: LuxS-Sepharose and Sepharose-only controls
Experimental: SiaP binds sialic acid. SiaP was overexpressed in a PET15 vector and purified to homogeneity from E. coli. It was then crosslinked to Sepharose® beads and the ability of the SiaP-Sepharose® conjugate to bind sialic acid was assessed using ^3H-labelled sialic acid. […] Non-specific binding was not observed in this system as evidenced by the LuxS-Sepharose® and Sepharose®-only controls (FIG. 26).

siaT, sequence (P44542 24-329): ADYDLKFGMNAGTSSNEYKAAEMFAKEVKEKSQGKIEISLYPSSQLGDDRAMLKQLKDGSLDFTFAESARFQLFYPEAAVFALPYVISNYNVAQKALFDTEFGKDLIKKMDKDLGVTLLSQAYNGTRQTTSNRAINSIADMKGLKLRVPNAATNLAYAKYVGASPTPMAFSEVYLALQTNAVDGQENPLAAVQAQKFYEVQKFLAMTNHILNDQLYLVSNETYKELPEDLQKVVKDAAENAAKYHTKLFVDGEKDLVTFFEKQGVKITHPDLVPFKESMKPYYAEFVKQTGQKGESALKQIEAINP
T1 sequence (P44542 24-329): as above
His-tagged siaP, sequence (P44542 24-329): as above

CCCCCCCC(=O)N[C@H]1C([C@H](O)[C@H](O)CO)OC(O)(C(=O)O)C[C@H]1O (stereo partly drawn) [SiaOct]
inhibition of LOS sialylation (H. influenzae [1]): inhibitor of LOS sialylation

CC(=O)N[C@H]1[C@H]([C@H](O)[C@H](O)CO)OC(C(=O)O)=C[C@@H]1O [DDNA, N-acetyl-2,3-didehydro-2-deoxyneuraminic acid]
inhibition of influenza A neuraminidase [2]: potent and specific inhibitors

O=C(CO)[C@@H](O)[C@H](O)[C@H](O)CO [fructose]
binding to siaT (siaT; Biacore): no binding

CC(=O)N[C@H]1[C@H]([C@H](O)[C@H](O)CO)O[C@@](Oc2ccc3c(C)cc(=O)oc3c2)(C(=O)[O-])C[C@@H]1O.O.[Na+] [2′-(4-Methylumbelliferyl)-α-D-N-acetylneuraminic acid sodium salt hydrate]
effect on Neu5Ac incorporation into H. influenzae [3]: did not have any effect

O=C[C@H](O)[C@@H](O)[C@@H](O)[C@H](O)CO [galactose]
binding to siaT (siaT; Biacore): no binding | binding to siaP (summary statement) (siaT): failed to bind | evidence of binding to SiaP (SiaP [4]): no evidence of binding

CC(=O)N[C@H]1[C@H]([C@H](O)[C@H](O)CO)OC(O)(C(=O)O)C(F)[C@@H]1O (stereo partly drawn) [3-fluorosialic acid, 3-fluoro-N-acetylneuraminic acid]
reduction of sialic acid uptake ([3]; NTHi strain 2019, versus no inhibitor): 60% | inhibition of sialylation of LOS (H. influenzae [5]): highly effective | inhibition of influenza A neuraminidase [2]: potent and specific inhibitors

C[C@H](O)[C@@H](O)[C@@H](O)[C@H](O)C=O [fucose]
binding to siaP (summary statement) (siaT): failed to bind

CC(=O)N[C@@H]1C(O)O[C@H](CO)[C@@H](O)[C@@H]1O (stereo partly drawn) [N-acetylmannosamine]
binding to siaT (siaT; Biacore): no binding | binding to siaP (summary statement) (siaT): failed to bind | evidence of binding to SiaP (SiaP [4]): no evidence of binding

CCOC(=O)C1=C[C@@H](OC(CC)CC)[C@H](NC(C)=O)[C@@H](N)C1 [Tamiflu]
effect on Neu5Ac incorporation into H. influenzae [3]: did not have any effect | inhibition of influenza A neuraminidase [2]: potent and specific inhibitors

CC(=O)N[C@H]1[C@H]([C@H](O)[C@H](O)CO)OC(O)(C(=O)O)C[C@@H]1O (stereo partly drawn) [Neu5Ac, N-acetylneuraminic acid]
binding of 3H-Neu5Ac to resin-bound protein (His-tagged siaP): bound only to the resin to which siaT was bound | Neu5Ac concentration at which binding peaked (siaT; Biacore, Neu5Ac 10 to 50 mM): 22 mM | Kd (siaT; Biacore, Neu5Ac 10 to 50 mM, estimated by calculation): 17 nM | binding to siaP (summary statement) (siaT): extremely high affinity | sialic acid concentration up to which association with SiaP increased (SiaP [4]; up to 50 mM minimal further increase): 20 mM | n value calculated from the binding data (SiaP [6]): always less than one | Kd (SiaP [6]; three independent experiments): 130 nM | binding of sialic acid by SiaP-Sepharose (SiaP [7]): capable of binding sialic acid

N[C@H]1C(O)O[C@H](CO)[C@@H](O)[C@@H]1O (stereo partly drawn) [glucosamine]
evidence of binding to SiaP (SiaP [4]): no evidence of binding

O=C[C@H](O)[C@@H](O)[C@H](O)CO [xylose]
binding to siaT (siaT; Biacore): no binding | binding to siaP (summary statement) (siaT): failed to bind

CC(=O)N[C@H]1C(O)O[C@H](CO)[C@@H](O)[C@@H]1O (stereo partly drawn) [N-acetylglucosamine]
evidence of binding to SiaP (SiaP [4]): no evidence of binding

CC(=O)N[C@H]1[C@H]([C@H](O)[C@H](O)CO)OC(C(=O)O)=C[C@@H]1N=C(N)N [Relenza]
effect on Neu5Ac incorporation into H. influenzae [3]: did not have any effect | inhibition of influenza A neuraminidase [2]: potent and specific inhibitors
